pIC50: −log10 of the molar value.

The text below walks through data of PMC10508830 (Antiviral research, 2023).

In the assay the target is NA of clade 2.3.4.4b A(H5N1) viruses lacking the flagged NA substitutions (n = 15) (Influenza A virus, UniProt Q9Q0U7). Type of assay: biochemical. To be noted: read-out: Median IC50 A(H5N1).
Chain of NA of clade 2.3.4.4b A(H5N1) viruses lacking the flagged NA substitutions (n = 15) (Q9Q0U7 whole entry, looked up): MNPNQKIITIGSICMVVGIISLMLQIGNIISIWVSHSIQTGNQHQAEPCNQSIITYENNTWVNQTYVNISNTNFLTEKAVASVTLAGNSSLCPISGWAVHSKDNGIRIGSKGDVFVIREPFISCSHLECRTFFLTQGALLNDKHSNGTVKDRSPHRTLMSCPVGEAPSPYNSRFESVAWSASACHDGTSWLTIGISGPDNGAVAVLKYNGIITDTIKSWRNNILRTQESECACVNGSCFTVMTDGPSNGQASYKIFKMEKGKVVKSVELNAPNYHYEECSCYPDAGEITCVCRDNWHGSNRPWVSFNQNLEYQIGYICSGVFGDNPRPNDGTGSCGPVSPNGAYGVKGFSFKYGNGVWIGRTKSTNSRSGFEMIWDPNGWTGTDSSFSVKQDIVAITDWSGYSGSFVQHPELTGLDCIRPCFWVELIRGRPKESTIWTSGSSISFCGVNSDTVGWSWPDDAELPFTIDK

Take peramivir: the pIC50 was 10.00.

As usually defined, the pIC50 is −log10 of the IC50, conventionally taken in molar units.
